One series deals with narkotisierten Hund. The series can be described thus: Blood pressure lowering in the anaesthetised dog. It counts as in vivo. The conditions noted are these: narkotisierter Hund; compared with Bucindolol. An excerpt:
(§1) Die antihypertensive Wirksamkeit der erfindungsgemäßen Verbindungen kann in verschiedenen pharmakolgischen Tests nachgewiesen werden.

Series [1] in a line: Acute toxicity, LD50 mouse i.v. The conditions noted are these: in vivo, iv, read-out: Akute Toxizität LD50 Maus i.v.
From the text: as §1

Series [2] can be described thus: Acute toxicity, LD50 rat i.v. As to conditions: in vivo, iv, read-out: Akute Toxizität LD50 Ratte i.v.
From the text: as §1

The next series has as its system wachen Hund. Description: Blood pressure lowering in the conscious dog. As to conditions: wacher Hund; compared with Bucindolol. Format: in vivo.
From the text: as §1

The LD50 is the dose at which mortality reaches 50%. Regarding `CC(C)(Cc1c[nH]c2ccccc12)NCC(O)COc1ccsc1C(N)=O` (racemic) [Beispiel 2, 3-<3-[1,1-Dimethyl-2-(indol-3-yl)äthylamino]-2-hydroxy-- propoxy>-thiophen-2-carbonsäureamid], the blutdrucksenkend result in the series on narkotisierten Hund and with wachen Hund was “ähnlich stark und anhaltend blutdrucksenkend wie das bekannte Bucindolol” throughout. Further, the LD50 in series [1] was found to be 74 mg/kg; in series [2] it was 86 mg/kg.
For the compound `CC(C)(Cc1c[nH]c2ccccc12)NCC(O)COc1ccccc1C#N` (stereo not drawn) [Bucindolol, 2-<2-Hydroxy-3-<[2-(3-indolyl)-1,1-dimethyläthyl] amino>-propoxy>benzonitril, reference compound], the LD50 in series [1] (Maus, i.v.) is 9.6 mg/kg; in series [2] (Ratte, i.v.), 20.2 mg/kg.

Values taken from patent publication EP0065295A1, “Tryptamine derivatives of thienyloxypropanol amines, process for their preparation, pharmaceutical compositions containing them and preparation of the latter” (HOECHST AKTIENGESELLSCHAFT, priority 1981, dated 1982).
